Holding throughout (experiment): NCI tumour cell line growth inhibition, 48 h
The subject of assay [1] is EKVX.
The subject of assay [2] is PC-3.
Assay [3] has as its system HT-29.
Assay [4] deals with OVCAR-5.
Assay [5] relates to M14.
For assay [6], the system named is NCI/ADR-RES.
Assay [7] concerns SF-295.
Assay [8] deals with U-251.
The test system of assay [9] is SNB-75.
For assay [10], the system named is A498.
Assay [11] concerns T47D.
The test system of assay [12] is NCI-H522.
For assay [13], the system named is SR.
Assay [14] deals with LOX IMVI.
Assay [15] deals with BT-549.
Assay [16] has as its system IGROV-1.
Assay [17] relates to SF-268.
The subject of assay [18] is HOP-62.
For assay [19], the system named is HCC 2998.

SMILES strings stand for the structures.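 Tested at 5 concentrations; 48 h exposure; 96-well plates; endpoints linearly interpolated, else capped at highest concentration. GI50 is the concentration that inhibits growth by half.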 Active and inactive are the calls of the source. No stated cut-off is given here; in the data, active = GI50 up to about 1.1 µM and inactive = higher.

With `O=C(O)c1cccc(SSc2cccc(C(=O)O)c2)c1`, the GI50 in assay [1], in assay [2], in [3], in [4], in assay [5] and in assay [6] was > 100 µM (inactive) throughout. The GI50 in [7] is > 100 µM (inactive); in assay [8] it was > 100 µM (inactive); in [9] it was > 100 µM (inactive); in assay [10] it was > 100 µM (inactive); in assay [11], > 100 µM (inactive); in assay [12], 58.1 µM (inactive). The GI50 in assay [13], in [14], in assay [15], in assay [16], in assay [17] and in assay [18] was > 100 µM (inactive) throughout.

Regarding `COc1ccc(-n2sc3ncc([N+](=O)[O-])cc3c2=O)cc1`, the GI50 in assay [1], in [2], in assay [3], in [4], in [5] and in assay [6] was > 100 µM (inactive) each time. Moreover, the GI50 was > 100 µM (inactive) in assay [7]; > 100 µM (inactive) in [8]; > 100 µM (inactive) in assay [19]; > 100 µM (inactive) in assay [9]; > 100 µM (inactive) in [11]; 34.4 µM (inactive) in assay [12]. Besides, the GI50 in assay [13], in assay [14], in assay [15], in assay [16], in [17] and in [18] was > 100 µM (inactive) in each case.

For `O=S(=O)(/N=C(\NO)Nc1ccc(Cl)cc1)C1CC=C(c2ccon2)S1` (stereo not given), the GI50 in [1] was 31 µM (inactive); in assay [2], 14.8 µM (inactive); in [3], 42.7 µM (inactive); in [4], > 66.2 µM (inactive); in assay [5] it was 29 µM (inactive); in assay [6], 22.1 µM (inactive). For the same compound, the GI50 was 40.7 µM (inactive) in assay [7]; 15.8 µM (inactive) in [8]; 15.3 µM (inactive) in assay [19]; 7.24 µM (inactive) in [10]; 12.5 µM (inactive) in assay [11]; 1.13 µM (inactive) in assay [12]. Moreover, the GI50 in assay [13] is 2.3 µM (inactive); in assay [14], 21 µM (inactive); in assay [15] it was 12.3 µM (inactive); in assay [16], 11.6 µM (inactive); in assay [17], 14.7 µM (inactive); in assay [18], 40.5 µM (inactive).

`CCOC(=O)c1nc2ccc(C(F)(F)F)cc2nc1NCc1ccc(OC)c(OC)c1`: the GI50 in [1] is 44.8 µM (inactive); in [2], 35.5 µM (inactive); in assay [3], 32.1 µM (inactive); in assay [4], > 100 µM (inactive); in assay [5], 67.8 µM (inactive); in [6], 37 µM (inactive). Besides, the GI50 is 47.6 µM (inactive) in assay [7]; 41.8 µM (inactive) in [8]; 21.9 µM (inactive) in [9]; 58.2 µM (inactive) in assay [10]; 48.1 µM (inactive) in assay [11]; 30.6 µM (inactive) in [12]. The GI50 in assay [13] is 29.6 µM (inactive); in assay [14], 36.1 µM (inactive); in [15], 51.3 µM (inactive); in assay [16] it was 71.1 µM (inactive); in assay [17] it was 83.9 µM (inactive); in [18] it was 58.3 µM (inactive).

For the compound `CCOC(=O)c1ccc(Nc2nc3cc(C(F)(F)F)ccc3nc2-c2ccccc2)cc1`, the GI50 in assay [1] was 49.8 µM (inactive); in assay [2], 22.2 µM (inactive); in assay [3] it was > 10 µM (inactive); in assay [4], 30.1 µM (inactive); in assay [6] it was 70.5 µM (inactive); in [7], 26.7 µM (inactive). Moreover, the GI50 is 21.9 µM (inactive) in [8]; 22.8 µM (inactive) in assay [19]; 13.5 µM (inactive) in assay [9]; 35.7 µM (inactive) in [11]; 37.6 µM (inactive) in [12]; > 100 µM (inactive) in [13]. In addition, the GI50 in assay [14] was > 100 µM (inactive); in [15] it was > 100 µM (inactive); in [16] it was 36.1 µM (inactive); in assay [17] it was > 100 µM (inactive); in assay [18], 20.9 µM (inactive).

With `O=C(CCNC12CC3CC(CC(C3)C1)C2)c1ccccc1`, the GI50 is 19.6 µM (inactive) in assay [2]; 2.79 µM (inactive) in assay [3]; 21.2 µM (inactive) in assay [4]; 17.8 µM (inactive) in [5]; 21.2 µM (inactive) in assay [6]; 20 µM (inactive) in assay [7]. The GI50 was 15.1 µM (inactive) in assay [8]; 13.3 µM (inactive) in assay [19]; 33 µM (inactive) in assay [9]; 17.4 µM (inactive) in assay [10]; 20.6 µM (inactive) in assay [11]; 17.3 µM (inactive) in assay [12]. Moreover, the GI50 in assay [13] was 13.4 µM (inactive); in assay [15], 28.7 µM (inactive); in assay [16] it was 21.6 µM (inactive); in assay [17], 24.6 µM (inactive).

Regarding `Cc1cc(C)c2c(n1)S(=O)(=O)N(CCCN1CCN(c3cccc(Cl)c3)CC1)C(C(=O)c1ccc(Br)cc1)=C2O`, the GI50 in assay [1] is 19.3 µM (inactive); in assay [2], 22 µM (inactive); in assay [3], 25.4 µM (inactive); in assay [4] it was 36.2 µM (inactive); in assay [5] it was 19.4 µM (inactive); in [6], 18.8 µM (inactive). For the same compound, the GI50 in assay [7] was 18.9 µM (inactive); in [8], 21.3 µM (inactive); in [9], 10.3 µM (inactive); in [10], 34.9 µM (inactive); in assay [11], 33.4 µM (inactive); in assay [12] it was 20.5 µM (inactive). The GI50 in assay [13] is 13.4 µM (inactive); in assay [14], 6.81 µM (inactive); in [15], 42.3 µM (inactive); in [16], 27.2 µM (inactive); in assay [17], 24.5 µM (inactive); in [18], 19.9 µM (inactive).

Consider `Cc1csc2nc(-c3cc([N+](=O)[O-])c(Cl)cc3Cl)c(/C=N/N=C(N)N)n12`, for which the GI50 was 19.7 µM (inactive) in assay [1]; 16.4 µM (inactive) in assay [2]; 16.1 µM (inactive) in [3]; 17.4 µM (inactive) in assay [4]; 17.1 µM (inactive) in assay [5]; 15.3 µM (inactive) in [6]. Also, the GI50 in [7] is 17.8 µM (inactive); in assay [8], 16.6 µM (inactive); in assay [19] it was 7.19 µM (inactive); in [10], 19.6 µM (inactive); in [11], 16.9 µM (inactive); in assay [12], 15.9 µM (inactive). Further, the GI50 in assay [13] is 0.0678 µM (active); in assay [14], 16.7 µM (inactive); in assay [15] it was 14.6 µM (inactive); in assay [16], 16.4 µM (inactive); in [17], 16.5 µM (inactive); in assay [18] it was 16.3 µM (inactive).

With `O=C1/C(=C/c2ccc(Cl)cc2)N=C(c2ccccc2)N1c1nc2c(Cl)cc(Cl)cc2s1`, the GI50 in [1] was 14.3 µM (inactive); in assay [2] it was 18.5 µM (inactive); in [3], 23.9 µM (inactive); in assay [4], 35.2 µM (inactive); in [5] it was 34.9 µM (inactive); in assay [6], 27.2 µM (inactive). Further, the GI50 in assay [7] is 30.6 µM (inactive); in [8], 19.7 µM (inactive); in assay [19], 40.2 µM (inactive); in assay [9] it was 35.7 µM (inactive); in assay [10] it was 18.2 µM (inactive); in assay [11], 25.1 µM (inactive). Besides, the GI50 was 14.3 µM (inactive) in assay [13]; 22.4 µM (inactive) in assay [14]; 28.5 µM (inactive) in [15]; 32.4 µM (inactive) in [16]; 43.9 µM (inactive) in assay [17]; 22 µM (inactive) in assay [18].

Regarding `CC(C)(N)C(=O)N[C@@H]1C(=O)N2[C@@H]1SC(C)(C)[C@@H]2C(=O)O`, the GI50 in [1], in assay [2], in assay [3], in assay [4], in assay [5] and in assay [6] was > 100 µM (inactive) each time. The GI50 in [7], in assay [8], in assay [9], in assay [10], in assay [11] and in assay [12] was > 100 µM (inactive) throughout. Also, the GI50 in [13], in assay [14], in assay [15], in assay [16], in assay [17] and in assay [18] was > 100 µM (inactive) throughout.

Consider `NC(=O)NC(=O)c1cccc(NC(=O)CBr)c1`, for which the GI50 is 0.766 µM (active) in assay [1]; < 0.0182 µM (active) in assay [2]; < 0.0168 µM (active) in assay [3]; < 0.0204 µM (active) in [4]; 0.198 µM (active) in assay [5]; < 0.0171 µM (active) in assay [6]. Moreover, the GI50 in assay [7] was 0.197 µM (active); in assay [8], < 0.018 µM (active); in assay [19], 0.282 µM (active); in assay [10], 0.102 µM (active); in [11], 1.42 µM (inactive); in [12], < 0.01 µM (active). Besides, the GI50 was < 0.01 µM (active) in assay [13]; < 0.01 µM (active) in assay [14]; < 0.02 µM (active) in [15]; 0.0266 µM (active) in assay [16]; < 0.0158 µM (active) in assay [17]; 0.0577 µM (active) in assay [18].
